Assay [1] deals with spermatozoids. As to the kind of experiment: Count or daily production of spermatozoids (synthetic macamide). It counts as in vivo. To be noted: inventors' laboratory (Gonzales, 2006 page 104). From the text: (§1) In the inventors' laboratory, the effect of a synthetic macamide, N-benzyl-5-oxo-6E, 8E-octadecadienamide, has been tested, which had no effect in the count or daily production of spermatozoids (Gonzales, 2006 page 104). […] Most of the biological activity is rather found in the more polar fractions (Gonzales, 2006; 2006a; Valerio & Gonzales, 2005).

Assay [2] has as its system spermatozoids. Description: Number of spermatozoids in mice. It counts as in vivo.
Source text: as §1

Assay [3] relates to Bacillus subtilis. The conditions noted are these: between six sesquiterpene lactones tested; cited from earlier work.

For the molecule `CCCCCCCCC/C=C/C=C/C(=O)CCCC(=O)NCc1ccccc1` [N-benzyl-5-oxo-6E, 8E-octadecadienamide], the “effect in the count or daily production of spermatozoids” value in assay [1] is listed as “no effect”.
`CCCCCCCCCCCCCCCC(=O)NCc1ccccc1` [N-benzyl-hexadecanamide]: in assay [2], the “effect on the number of spermatozoids” value is recorded as “not been observed”.
Consider Fluctuanine, for which the antibacterial activity entry in assay [3] was “greatest antibacterial activity”.

The values are drawn from patent publication US7985434B2, “Compositions of atomized or lyophilized maca (Lepidium meyenii) extracts and atomized or lyophilized yacon (Smallanthus sanchifolius) extracts as adjuvants in the treatment of different conditions” (Universidad Peruana Cayetano Heredia, priority 2009, dated 2011).
